“And” between values parts separate entries of the source, which are not always exact repeats. Equal entries are not always repeated.
Key:
[1] = test system: naive mice; assay: Barnes maze (spatial learning and memory, reversal learning); assay type: in vivo, mouse; conditions: for Barnes maze, count per hole (Fig S8D) / Barnes maze, count per hole (Fig S8E): individual animals;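 as to Barnes maze, count per hole (Fig S8D): Nose pokes per hole during a probe trial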;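 as to Barnes maze, count per hole (Fig S8E): Nose pokes per hole during a probe trial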
Method: Spatial learning and memory.
On each day, animals were moved from the housing facility to the experimental room and allowed to acclimatize for at least 60 min before initiation of the experiment. All drugs used (PBS or 10 μmol/kg mPD5) were injected s.c. in a 10 μl/g body weight volume 60 min before first placement on the Barnes’ maze on day 1-9 of the experiment. The experiment was divided into Barnes maze habituation, spatial acquisition (training) and probe trials. During habituation to the Barnes maze itself, animals were placed under a cylinder in the middle of the Barnes maze for 10 seconds and then gently guided to the escape box and left there for two min. During spatial acquisition (training), each mouse was placed under a cylinder in the middle of the Barnes maze for 10 sec followed by up to three min of free exploration of the Barnes maze.
Once the animal entered the escape cage, it was left there for one min before being transferred back to its home cage for 15-20 min. This training was performed four times per day per mouse.
During probe trials the reference memory of the animal was tested by placing each mouse under a cylinder in the middle of the Barnes maze for 10 sec followed by 90 sec of free exploration of the Barnes maze with no escape cage. On days 6-8, the escape hole was moved 90 degrees, and all mice went through the second bout of training. On day nine, a second probe trial was performed testing the reversal learning of the mice. […]
Single exposure place preference. […]

[2] = Flow-induced dispersion analysis (FIDA), critical micelle concentration; assay type: physicochemical
From the text: Supplemental Figure S2. FIDA analysis of mPD5. (A) Molecular properties of mPD5.
(B) Taylorgrams for different concentrations of mPD5 using an uncoated capillary.
(C) Taylorgrams for different concentrations of mPD5 using a Poly-L-ornithine capillary.
(D) Taylorgrams for different concentrations of mPD5 using an HS-coated capillary.
(E) Graphical representation of mPD5 absorption using different coating strategies (B-D).
(F) Binding isotherm of mPD5 combining optimal coatings for different concentrations results in a CMC of 12 µM. […]
FIDA was carried out using a fluorescently labelled (AF488-NHS) mPD5 analogue, and fluorescence was recorded at 488 nm using mPD5-AF488 (25% labelling efficiency) as a tracer (100 nM), using the standard protocol recommended by the manufacturer, in short, mPD5 and mPD5-AF488 (25% labelling efficiency) was loaded to the FIDA1 instrument, and peptide sample was injected into the capillary followed by a buffer injection. The diffusion of the peptide could then be observed using 488 nm fluorescence, and the hydrodynamic radius was calculated using the FIDA software 2.0 using a single Gaussian distribution fit, at 75% and curve smoothing. […]
Concentration series of mPD5 ranging from 0.18 mg/mL to 9.37 mg/mL was prepared in buffer containing 50 mM Tris-HCl (pH 7.4) and 125 mM NaCl. Samples were measured at the P12 SAXS Beamline, PetraIII, DESY, Hamburg Germany (2). […]

For CCCCCCCCCCCCCC(=O)N(CCOCCOCCC(=O)N[C@@H](Cc1c[nH]cn1)C(=O)N[C@@H](Cc1c[nH]c2ccccc12)C(=O)N[C@@H](CC(C)C)C(=O)N[C@@H](CCCCN)C(=O)N[C@H](C(=O)O)C(C)C)CCOCCOCCC(=O)N[C@@H](Cc1c[nH]cn1)C(=O)N[C@@H](Cc1c[nH]c2ccccc12)C(=O)N[C@@H](CC(C)C)C(=O)N[C@@H](CCCCN)C(=O)N[C@H](C(=O)O)C(C)C [mPD5, myristoyl-NPEG4-(HWLKV)2], the “Barnes maze, count per hole (Fig S8D)” value ([1]; hole position 1) was 2 (3×) and 1 (2×) and 0 (2×) and 3 (2×), the “Barnes maze, count per hole (Fig S8E)” value ([1]; hole position 1) was 3 (6×) and 1 (2×) and 2 and the “Barnes maze, count per hole (Fig S8D)” value ([1]; hole position 2) was 0 (5×) and 1 (3×) and 2. For the same molecule, the “Barnes maze, count per hole (Fig S8E)” value ([1]; hole position 2) was 0 (6×) and 1 (3×), the “Barnes maze, count per hole (Fig S8D)” value ([1]; hole position 3) was 1 (4×) and 2 (3×) and 0 (2×) and the “Barnes maze, count per hole (Fig S8E)” value ([1]; hole position 3) was 1 (7×) and 0 and 2. The “Barnes maze, count per hole (Fig S8D)” value ([1]; hole position 4) was 0 (4×) and 2 (2×) and 1 (3×), the “Barnes maze, count per hole (Fig S8E)” value ([1]; hole position 4) was 1 (6×) and 2 (2×) and 0 and the “Barnes maze, count per hole (Fig S8D)” value ([1]; hole position -1) was 2 (3×) and 3 and 1 (2×) and 6 and 0 and 4. For the same molecule, the “Barnes maze, count per hole (Fig S8E)” value ([1]; hole position -1) was 3 (4×) and 0 (2×) and 1 and 2 and 4, the “Barnes maze, count per hole (Fig S8D)” value ([1]; hole position -2) was 0 (8×) and 1 and the “Barnes maze, count per hole (Fig S8E)” value ([1]; hole position -2) was 0 (4×) and 1 (4×) and 2. The “Barnes maze, count per hole (Fig S8D)” value ([1]; hole position -3) was 0 (6×) and 1 (2×) and 2, the “Barnes maze, count per hole (Fig S8E)” value ([1]; hole position -3) was 1 (5×) and 0 (2×) and 2 (2×) and the “Barnes maze, count per hole (Fig S8D)” value ([1]; hole position -4) was 0 (6×) and 2 (2×) and 1. For the same molecule, the “Barnes maze, count per hole (Fig S8E)” value ([1]; hole position -4) was 1 (6×) and 0 (2×) and 2, the “Barnes maze, count per hole (Fig S8D)” value ([1]; hole position -5) was 0 (6×) and 2 (2×) and 1 and the “Barnes maze, count per hole (Fig S8E)” value ([1]; hole position -5) was 1 (4×) and 0 (2×) and 2 (2×) and 3. The “Barnes maze, count per hole (Fig S8D)” value ([1]; hole position -6) was 0 (6×) and 3 and 1 (2×), the “Barnes maze, count per hole (Fig S8E)” value ([1]; hole position -6) was 1 (3×) and 0 (2×) and 2 (3×) and 3 and the “Barnes maze, count per hole (Fig S8D)” value ([1]; hole position -7) was 0. For the same molecule, the “Barnes maze, count per hole (Fig S8E)” value ([1]; hole position -7) was 0, the “Barnes maze, count per hole (Fig S8D)” value ([1]; hole position Goal) was 2 (2×) and 3 (2×) and 6 (2×) and 1 (2×) and 4 and the “Barnes maze, count per hole (Fig S8E)” value ([1]; hole position Goal) was 4 (3×) and 3 (3×) and 2 (2×) and 1. For the same molecule, the “latency to reach target and total distance moved, probe test day 5” value ([1]; s.c. 10 μmol/kg 60 minutes before placement, after 4 days of training) was “no difference”, the “latency to reach the target and total distance moved following reversal learning” value ([1]; s.c. 10 μmol/kg 60 minutes before placement, probe test day 9) was “no difference was observed” and the “distribution of nose pokes between the holes” value ([1]; s.c. 10 μmol/kg, both probe tests) was “did not differ between groups”. The “critical micelle concentration (CMC)” value ([2]; FIDA binding isotherm, optimal coatings combined) was 12 µM and the “hydrodynamic radius (RH)” value ([2]; FIDA, micellar mPD5) was “≈ 30 Å”.

— paper PMC11530130, “Peripherally restricted PICK1 inhibitor mPD5 ameliorates pain behaviors in murine inflammatory and neuropathic pain models” (JCI Insight, 2024)
